# Tests used:
# E. coli (ATCC 259233) = assay: Bacterial growth inhibition assay; format: cell-based, Escherichia coli; parameters: MIC (Gentamycin, unit not given): unit not given beside the values; conditions: for MIC: Escherichia coli, ATCC259233
# Procedure: (§1) The prepared samples were tested for in vitro antimicrobial activity against E. faecalis, E. coli, P. aeruginosa, S. aureus, Streptococcus agalactiae and S. epidermis using gentamycin as a reference compound.
# To determine and quantify antimicrobial activity, a bacteria growth inhibition assay in liquid media was executed. Compounds 2–3, 4, 8–10, 13–14, 16, 18, and 20 were tested against Staphylococcus aureus (ATCC 25923), Escherichia coli (ATCC 259233), Enterococcus faecialis (ATCC 29122), Pseudomonas aeruginosa (ATCC 27853) and Streptococcus agalactiae (ATCC 12386); all strains from LGC Standards (Teddington, UK). S. aureus, E. coli, and P. aeruginosa were grown in Muller Hinton broth (275730, Becton, Franklin Lakes, NJ, USA). E. faecalis and S. agalactiae were cultured in brain hearth infusion broth (53286, Sigma, St Louise, MO, USA). Fresh bacterial colonies were transferred in the respective medium and incubated at 37 °C overnight. The bacterial cultures were diluted to a culture density representing the log phase and µL/well were pipetted into a 96-well microtiter plate (734–2097, NunclonTM, Thermo Scientific, Waltham, MA, USA). The final cell density was 1500–15.000 colony forming units/well. The compound was diluted in 2% (v/v) DMSO in ddH2O, providing a final assay concentration of 50% of the prepared sample, since 50 µL of sample in DMSO/water were added to 50 µL bacterial culture. After adding the samples to the plates, they were incubated overnight at 37 °C and the growth was determined by measuring the optical density at λ = 600 nm (OD600) with a 1420 Multilabel Counter VICTOR3TM (Perkin Elmer, Waltham, MA, USA). A water sample was used as a reference control, growth medium without bacteria was used as a negative control and dilution series of gentamycin (A2712, Merck, Darmstadt, DE) from 32 to 0.01 µg/mL was used as positive control and visually inspected for bacterial growth. The positive control was used as a system suitability test and the results of the antimicrobial assay were only considered valid when positive control was passed. […]
# [1] = system: Streptococcus agalactiae (ATCC 12386); assay: Bacterial growth inhibition assay; format: cell-based; parameters: MIC (Gentamycin, unit not given): unit not given beside the values; conditions: for MIC: ATCC12386
# Procedure: as §1
# (§2) To determine and quantify antimicrobial activity, a bacteria growth inhibition assay in liquid media was executed. Compounds 2–3, 4, 8–10, 13–14, 16, 18, and 20 were tested against Staphylococcus aureus (ATCC 25923), Escherichia coli (ATCC 259233), Enterococcus faecialis (ATCC 29122), Pseudomonas aeruginosa (ATCC 27853) and Streptococcus agalactiae (ATCC 12386); all strains from LGC Standards (Teddington, UK). S. aureus, E. coli, and P. aeruginosa were grown in Muller Hinton broth (275730, Becton, Franklin Lakes, NJ, USA). E. faecalis and S. agalactiae were cultured in brain hearth infusion broth (53286, Sigma, St Louise, MO, USA). Fresh bacterial colonies were transferred in the respective medium and incubated at 37 °C overnight. The bacterial cultures were diluted to a culture density representing the log phase and µL/well were pipetted into a 96-well microtiter plate (734–2097, NunclonTM, Thermo Scientific, Waltham, MA, USA). The final cell density was 1500–15.000 colony forming units/well. The compound was diluted in 2% (v/v) DMSO in ddH2O, providing a final assay concentration of 50% of the prepared sample, since 50 µL of sample in DMSO/water were added to 50 µL bacterial culture. After adding the samples to the plates, they were incubated overnight at 37 °C and the growth was determined by measuring the optical density at λ = 600 nm (OD600) with a 1420 Multilabel Counter VICTOR3TM (Perkin Elmer, Waltham, MA, USA). A water sample was used as a reference control, growth medium without bacteria was used as a negative control and dilution series of gentamycin (A2712, Merck, Darmstadt, DE) from 32 to 0.01 µg/mL was used as positive control and visually inspected for bacterial growth. The positive control was used as a system suitability test and the results of the antimicrobial assay were only considered valid when positive control was passed. The final concentration of DMSO in the assays was ≤2% (v/v) and was known to have no effect in the tested bacteria. The data was processed using GraphPad Prism 8.
# [2] = Cytotoxicity assay (resazurin-based viability); format: cell-based; conditions: human, HEK293 cells, mean ± standard deviation, two separate experiments
# Procedure: Fluorescence was measured using an EnSight plate reader (PerkinElmer, Waltham, MA, USA).
# [3] = system: HCT116 (human colon cancer); assay: Antiproliferative assay (resazurin); format: cell-based; conditions: Homo sapiens, HCT-116; 72 h compound incubation; mean ± sem, two separate experiments
# Procedure: (§3) Compounds tested in the antiproliferative assays were tested in 11 dilution points (0.02 µM–40 µM or 0.04 µM–80 µM). […] HCT116 cells were maintained in McCoy’s 5A media (Life Technologies, CA, USA), MDA-MB-231 cells were cultured in DMEM media (Life Technologies) with 10 mM HEPES (Life Technologies), whilst PC-3 cells were maintained in RPMI media (Life Technologies). All media were supplemented with 10% heat-inactivated fetal bovine serum (Australian source; Corning, CA, USA) and all cells were incubated at 37 °C in a humidified incubator with 5% CO2. Cells were seeded in 384-well plates (Greiner Bio-One, NC, USA) using the respective complete media. After 24 h cell seeding, compounds were added and antiproliferative activity was determined using the resazurin assay after 72 h compound incubation. Briefly, cells were incubated with 60 µM resazurin (Cayman, MI, USA) for 6 h at 37 °C and fluorescence signals were measured using a microplate reader (EnSight, PerkinElmer, Waltham, MA, USA).
# [4] = system: PC-3 (human prostate cancer); assay: Antiproliferative assay (resazurin); format: cell-based; conditions: Homo sapiens; 72 h compound incubation; mean ± sem, two separate experiments
# Procedure: as §3
# [5] = system: MDA-MB-231 (human breast adenocarcinoma); assay: Antiproliferative assay (resazurin); format: cell-based; conditions: Homo sapiens, MDA-MB-231; 72 h compound incubation; mean ± sem, two separate experiments
# Procedure: as §3
# [6] = Antiplasmodial imaging assay; format: cell-based, Plasmodium falciparum; conditions: human (HEK293) and Plasmodium falciparum (3D7), HEK293 cells versus Plasmodium falciparum 3D7 culture; HEK293 vs 3D7; read-out: SI (selectivity index = cytotoxicity in HEK293/activity in 3D7)
# Procedure: (§4) Compounds tested in the antiproliferative assays were tested in 11 dilution points (0.02 µM–40 µM or 0.04 µM–80 µM).
# (§5) Antiplasmodial activity was determined as previously described by Duffy and Avery. […] After incubation, plates were stained with 4’,6-diamidino-2-phenylindole (DAPI) in a permeabilization buffer for 5 h at rt in the dark. Plates were imaged on the Opera confocal microplate image reader (PerkinElmer).
# [7] = system: Plasmodium falciparum 3D7 strain; assay: Antiplasmodial imaging assay; format: cell-based; conditions: P. falciparum 3D7, 72 h, mean ± standard deviation, two separate experiments; for IC50: Plasmodium falciparum
# Procedure: as §4, §5
# S. aureus (ATCC 25923) = assay: Bacterial growth inhibition assay; format: cell-based, Staphylococcus aureus; parameters: MIC (Gentamycin, unit not given): unit not given beside the values; conditions: for MIC: Staphylococcus aureus, ATCC25923
# Procedure: as §1, §2
# [8] = system: E. faecalis, E. coli, P. aeruginosa, S. aureus, Streptococcus agalactiae and S. epidermis; assay: Antimicrobial and biofilm inhibition assays, whole panel of tested strains; format: cell-based; conditions: five bacterial strains and biofilm formation; tested up to 100 µM
# Procedure: as §1
# (§6) To determine and quantify antimicrobial activity, a bacteria growth inhibition assay in liquid media was executed. Compounds 2–3, 4, 8–10, 13–14, 16, 18, and 20 were tested against Staphylococcus aureus (ATCC 25923), Escherichia coli (ATCC 259233), Enterococcus faecialis (ATCC 29122), Pseudomonas aeruginosa (ATCC 27853) and Streptococcus agalactiae (ATCC 12386); all strains from LGC Standards (Teddington, UK). S. aureus, E. coli, and P. aeruginosa were grown in Muller Hinton broth (275730, Becton, Franklin Lakes, NJ, USA). E. faecalis and S. agalactiae were cultured in brain hearth infusion broth (53286, Sigma, St Louise, MO, USA). Fresh bacterial colonies were transferred in the respective medium and incubated at 37 °C overnight. The bacterial cultures were diluted to a culture density representing the log phase and µL/well were pipetted into a 96-well microtiter plate (734–2097, NunclonTM, Thermo Scientific, Waltham, MA, USA). […] After adding the samples to the plates, they were incubated overnight at 37 °C and the growth was determined by measuring the optical density at λ = 600 nm (OD600) with a 1420 Multilabel Counter VICTOR3TM (Perkin Elmer, Waltham, MA, USA). […]
# [9] = system: S. epidermis (ATCC 35984); assay: Biofilm formation inhibition assay; format: cell-based, Staphylococcus epidermidis; conditions: inhibition of biofilm formation
# Procedure: as §1
# For testing the inhibition of biofilm formation, the biofilm-producing Staphylococcus epidermidis (ATCC 35984) was grown in Tryptic Soy Broth (TSB, 105459, Merck, Kenilworth, NJ, USA) overnight at 37 °C. The overnight culture was diluted in fresh medium with 1% glucose (D9434, Sigma) before being transferred to a 96-well microtiter plate; 50 µL/well were incubated overnight with 50 µL of the test compound dissolved in 2% (v/v) DMSO aq. added in duplicates. The bacterial culture was removed from the plate and the plate was washed with tap water. The biofilm was fixed at 65 °C for 1 h before 70 µL 0.1% crystal violet (115940, Millipore, Burlington, MA, USA) was added to the wells for 10 min of incubation and 70 µL of 70% ethanol was then added to each well and the plate incubated on a shaker for 5–10 min. Biofilm formation inhibition was assessed by the presence of violet color and measured at […] absorbance using a 1420 Multilabel Counter VICTOR3TM; 50 µL of a non-biofilm forming Staphylococcus haemolyticus (clinical isolate 8-7A, University Hospital of North Norway Tromsø, Norway) mixed in 50 µL autoclaved Milli-Q water was used as a control; 50 µL S. epidermidis mixed in 50 µL autoclaved Milli-Q water was used as the control for biofilm formation; and 50 µL TSB with 50 µL autoclaved Milli-Q water was used as a medium blank control.
# E. faecalis (ATCC 29122) = assay: Bacterial growth inhibition assay; format: cell-based, Enterococcus faecialis; parameters: MIC (Gentamycin, unit not given): unit not given beside the values
# Procedure: as §1, §2
# [10] = system: P. aeruginosa (ATCC 27853); assay: Bacterial growth inhibition assay; format: cell-based, Pseudomonas aeruginosa; parameters: unit not given beside the values; conditions: reference compound
# Procedure: as §1, §6
Molecule,MIC (E. coli (ATCC 259233)),MIC [1],IC50 at 72 h [2],IC50 [3],IC50 [4],IC50 [5],selectivity ratio at 72 h [6],IC50 [7],MIC (S. aureus (ATCC 25923)),activity against any of the tested strains [8],melting point,3D7 IC50 [7],MBIC [9],"MIC (E. faecalis (ATCC 29122); Enterococcus faecalis, ATCC29122)","MIC (Gentamycin, unit not given) (E. coli (ATCC 259233); reference compound)","MIC (Gentamycin, unit not given) ([1]; reference compound)","MIC (Gentamycin, unit not given) [10]","MIC (Gentamycin, unit not given) (S. aureus (ATCC 25923); reference compound)","MIC (Gentamycin, unit not given) (E. faecalis (ATCC 29122); reference compound)"
"COc1cnc2cccc3c2c1Nc1ccccc1-3 [Compound 4b, 6-methoxy-7H-pyrido[4,3,2-gh]phenanthridine]",50 µM,75 µM,3657 ± 2 nM,166 ± 16 nM,24 ± 3 nM,1000 ± 297 nM,4.2,866 ± 2 nM,75 µM,,,,,,,,,,
"COC1=CN(C)c2cccc3c2c1nc1ccccc13 [Compound 8b, 6-Methoxy-4-methyl-4H-pyrido[4,3,2-gh]phenanthridine]",,,5057 ± 45 nM,871 ± 172 nM,4540 ± 361 nM,814 ± 162 nM,3.3,1550 ± 27 nM,,complete loss of activity,,,,,,,,,
"c1ccc2c(c1)[nH]c1ccc3ncccc3c12 [Compound 9a, 7H-Pyrido[2,3-c]carbazole]",,100 µM,> 80000 nM,20000 nM,17800 nM,21500 nM,> 11.7,6825 ± 61 nM,,,204 to 205 °C,little to no activity,100 µM,,,,,,
"Cn1cc2c3ccccc3nc-2c2ccccc21 [Isocryptolepine (3a), isocryptolepine]",100 µM,100 µM,2070 ± 70 nM,667 ± 45 nM,1821 ± 7 nM,695 ± 130 nM,1.7,1210 ± 84 nM,100 µM,,,,100 µM,100 µM,,,,,
gentamycin [reference compound],,,,,,,,,,,,,,,0.13,4,0.25,0.06,8

# — paper PMC8198049, “Synthesis and Evaluation of the Tetracyclic Ring-System of Isocryptolepine and Regioisomers for Antimalarial, Antiproliferative and Antimicrobial Activities” (Molecules, 2021)
